Assay results reported in patent US20230255873A1, “COSMETIC OR DERMATOLOGICAL PEPTIDE-BASED TREATMENT OF THE SKIN AND ITS INTEGUMENTS” (Sederma, priority 2020, published 2023).
The star is where a group is joined. Palmitoyl = CCCCCCCCCCCCCCCC(=O)*

Columns and labels:
NHKs exposed to UVB = assay: ELISA of pro-inflammatory mediators (PGE2 and IL-6) on NHK exposed to UVB; assay type: cell-based, human
Protocol: 1.1—Immuno-Enzymatic Assays (ELISA) on Normal Human Keratinocyte (NHK) Culture Principle: NHKs in culture and at confluence are brought into contact with the peptide of the invention at different concentrations for 24 hours in a medium allowing their survival. Then the cell layers are irradiated with UVB (light stress, intended to mimic an experimental cutaneous micro-inflammation) in a physiological buffer and again brought into contact with the products to be tested for 24 hours. At the end of this incubation, the culture media are assayed by ELISA to evaluate the amounts of pro-inflammatory mediators (PGE2 and IL-6) produced by these cells in response to irradiation. The results are compared to the control. A decrease in the amount of mediators produced will be interpreted as a limitation of damages related to inflammation. An estimate of the cell number is made on the attached layer to reduce the assay results to the number of cells. A study of variances and a Student t test are carried out to judge the significance of the results.

[1] = tested on: normal human keratinocytes (NHK); assay: DNA Microarray on NHK culture; assay type: cell-based; settings: 9 ppm, 24 hours, confluent NHKs
Protocol: 1.2—DNA Microarray-Technology NHK Culture Principle: the peptide according to the invention at 9 ppm is brought into contact for 24 hours with confluent NHKs (versus control case). Then the NHKs layers are rinsed, and the cells are crushed to extract their mRNA. These mRNAs are then converted into DNA sequences which are analyzed after deposition on DNA chips and amplification by a method similar to qRT-PCR (Real-time Quantitative Reverse Transcription Polymerase Chain Reaction). The mRNA variations due to the peptide are compared to the control case (the solvent of the peptide). The results are expressed as an expression ratio between the treated case and the control case. A ratio greater than 2 is considered to be induction of gene expression ([…]).

[2] = tested on: extracellular lipases of P. acnes; assay: Lipase activity of P. acnes (4-MUO probe); assay type: biochemical, Propionibacterium acnes; settings: vs solvent control, n = 6
Protocol: A culture of P. acnes was carried out. The cells were then separated from the culture medium containing the lipases excreted by P. acnes. The peptide of the invention was added to samples of this cell-free medium and lipase activity was monitored using a fluorescent 4-methylumbelliferyl oleate (4-MUO) probe which is converted by lipases to fluorescent 4-methylumbelliferone, and whose signal has been recorded.

P. acnes = assay: Persistent effect on P. acnes growth after removal of the peptide; assay type: cell-based, Propionibacterium acnes; settings: 48 hours of contact, then fresh medium without peptide
Protocol: This study was also carried out to follow the persistent effect of the peptide according to the invention on P. acnes, and to see if the inhibition can be quickly lifted in the absence of the peptide. The peptide was brought into contact with the cells from the start, as before. After 48 hours of contact and evaluation of the quantity of cells, the cells of all the cases were centrifuged and returned to a fresh medium without solvent or peptide, all the cases having the same quantity of cells. The growth was then assessed again.

palmitoyl-lysyl-threonyl-serine-lysyl-serine (Palmitoyl-KTSKS-OH; SMILES CCCCCCCCCCCCCCCC(=O)N[C@@H](CCCCN)C(=O)N[C@H](C(=O)N[C@@H](CO)C(=O)N[C@@H](CCCCN)C(=O)N[C@@H](CO)C(=O)O)[C@@H](C)O) [Pal-KTSKS]
IL6 secretion, variation compared to the control (NHKs exposed to UVB; 3 ppm): −4% (nsd) | PGE2 secretion, variation compared to the control (NHKs exposed to UVB; 3 ppm): +1% (nsd) | IL6 secretion, variation compared to the control (NHKs exposed to UVB; 10 ppm): −33% (p < 0.01) | PGE2 secretion, variation compared to the control (NHKs exposed to UVB; 10 ppm): −41% (p < 0.01) | IL6 secretion, variation compared to the control (NHKs exposed to UVB; 15 ppm): −65% (p < 0.01) | PGE2 secretion, variation compared to the control (NHKs exposed to UVB; 15 ppm): −63% (p < 0.01) | Expressed gene ABHD5 (1-acylglycerol-3-phosphate O-acyltransferase): variation compared to the control [1]: ×2.14 | Expressed gene ANXA1 (Annexin A1): variation compared to the control [1]: ×3.05 | Expressed gene AQP5 (Aquaporin 5): variation compared to the control [1]: ×3.11 | Expressed gene CALML5 (Calmodulin-like protein-5): variation compared to the control [1]: ×10.73 | Expressed gene CERS3 (Ceramide synthase 3): variation compared to the control [1]: ×2.38 | Expressed gene CGNL1 (Cingulin-like protein-1): variation compared to the control [1]: ×26.40 | Expressed gene CLDN7 (Claudin): variation compared to the control [1]: ×7.24 | Expressed gene CLDN23 (Claudin): variation compared to the control [1]: ×2.69 | Expressed gene CRNN (Cornulin): variation compared to the control [1]: ×258.60 | Expressed gene DEFB1 (Beta-1-defensin): variation compared to the control [1]: ×4.48 | Expressed gene DEFB103B (Human beta defensin-3): variation compared to the control [1]: ×337.87 | Expressed gene DMKN (Dermokin): variation compared to the control [1]: ×3.58 | Expressed gene ELOVL4 (3-keto acyl-CoA synthase): variation compared to the control [1]: ×5.06 | Expressed gene FLG2 (Filaggrine-2): variation compared to the control [1]: ×197 | Expressed gene HMOX1 (Heme Oxygenase-1): variation compared to the control [1]: ×29.27 | Expressed gene IL37 (Interleukin-37): variation compared to the control [1]: ×7.82 | Expressed gene IVL (Involucrin): variation compared to the control [1]: ×8.43 | Expressed gene KLK5 (Kallikrein 5): variation compared to the control [1]: ×2.2 | Expressed gene LCE2C: variation compared to the control [1]: ×37.7 | Expressed gene LCE3A (Late Cornified Envelop Protein): variation compared to the control [1]: ×306.86 | Expressed gene LCE3B: variation compared to the control [1]: ×324.01 | Expressed gene LCE3D: variation compared to the control [1]: ×1454.67 | Expressed gene LOR (Loricrin): variation compared to the control [1]: ×193 | Expressed gene OCLN (Occludin): variation compared to the control [1]: ×8.65 | Expressed gene PADI-1 (Peptidyl Arginin Deaminase): variation compared to the control [1]: ×185.61 | Expressed gene PI3 (Elafin): variation compared to the control [1]: ×7.73 | Expressed gene PRSS8 (Serine protease-8): variation compared to the control [1]: ×2.74 | Expressed gene RNASE7 (RNase 7): variation compared to the control [1]: ×40.85 | Expressed gene S100A7 (Psoriasin): variation compared to the control [1]: ×15.73 | Expressed gene SPINK5 (Serine protease inhibitor Kazal-type 5): variation compared to the control [1]: ×3.77 | Expressed gene SPRR1A (Small Proline Rich Region Protein): variation compared to the control [1]: ×2.00 | Expressed gene SPRR2A: variation compared to the control [1]: ×24.09 | Expressed gene SPRR2B: variation compared to the control [1]: ×451.61 | Expressed gene SPRR2C: variation compared to the control [1]: ×15.35 | Expressed gene SPRR2D: variation compared to the control [1]: ×23.97 | Expressed gene SPRR2E: variation compared to the control [1]: ×12.48 | Expressed gene SPRR2F: variation compared to the control [1]: ×15.29 | Expressed gene SPRR2G: variation compared to the control [1]: ×687.57 | Expressed gene SPRR3: variation compared to the control [1]: ×48.62 | Expressed gene SPRR4: variation compared to the control [1]: ×23.16 | Expressed gene TGM1 (Transglutaminase-1): variation compared to the control [1]: ×4.66 | Expressed gene TGM5 (Transglutaminase-5): variation compared to the control [1]: ×27.1 | Expressed gene TIMP1 (Metallopeptidase inhibitor 1): variation compared to the control [1]: ×3.68 | Expressed gene TIMP2 (Metallopeptidase inhibitor 2): variation compared to the control [1]: ×5.96 | Expressed gene TJP1 (Tight junction protein ZO-1): variation compared to the control [1]: ×2.02 | Lipase activity of P. acnes, Variation (%) ([2]; 6 ppm of peptide): −22%; p < 0.01 | Lipase activity of P. acnes, Variation (%) ([2]; 9 ppm of peptide): −64%; p < 0.01 | Lipase activity of P. acnes, Variation (%) ([2]; 12 ppm of peptide): −88%; p < 0.01 | Persistent effect on P. acnes growth once the peptide is removed (P. acnes): no persistent effect
